The results in this text go back to article PMC12040169 (PLOS Biology, 2025).

A short description of this data set: in vitro. The conditions noted are these: human, hela cells, % viability.

The structures appear in SMILES notation.

As to `CN(CCOC(=O)c1cccnc1)C(C)(C)C` [CBK027543C], the viability at 28.5 h, 10 µM is 88.8%.
Under `Cn1c(Cc2cccc3ccccc23)nnc1SCc1ccc([N+](=O)[O-])cc1` [CBK265898] stands 93.6%; under `O=C(CCC(=O)N1CCC2(CC1)CC(=O)c1ccccc1O2)NCC1CCCO1` (centres unmarked) [CBK156525], 86.2%.
Next, `CS(=O)(=O)c1ccc(CNc2nccnc2-c2ccccc2F)cc1` [CBK036836]: 96.4%; `O=C(Cc1ccccc1)N1CCN(C(=O)c2ccco2)CC1` [CBK068325]: 93.4%.
Next, `Cc1ccccc1OCC(=O)NCC1(N2CCCCC2)CCCCC1` [CBK297752]: 89.5%; `CC[C@H]1CN(C(=O)c2cccnc2)CC[C@H]1CC(=O)NCc1cccs1` [CBK288773]: 89.7%; `Cc1ccc(OCc2nnc(SCc3cccc(C#N)c3)n2Cc2ccccc2)cc1C` [CBK266065]: 90.5%.
As to `COc1cc(CNc2cncc(-c3cccs3)n2)cc(OC)c1OC` [CBK065526], the viability at 28.5 h, 10 µM was found to be 106%.
Next, `O=C(NCC1CCCO1)NC(=O)c1nsc2ccccc12` (centres unmarked) [CBK019827]: 113%; `CC(C)C(=O)N1CC2(CCN(Cc3cccc(C(F)(F)F)c3)CC2)c2ccccc21` [CBK126716]: 102%; `COc1ccccc1CN(C)C(C)C(=O)Nc1sccc1C(N)=O` (centres unmarked) [CBK306466]: 109%.
Next, `Cc1ccc2c(CC(=O)N3CCC(C(=O)O)CC3)coc2c1` [CBK286711]: 79.9%; `O=C(CSCc1ccc(Br)cc1)Nc1cccnc1` [CBK268543]: 104%; `Cc1nc2sccn2c1CN1CCC(O)(c2ccc(F)cc2)CC1` [CBK282792]: 98.2%.
Under `CN1CCC(C(=O)NC(=O)Nc2ccccc2F)CC1` [CBK034827] stands 93.2%.
Turning to `CNC(=O)c1cccc(NC(=O)C(C)N(C)Cc2cnc(C)s2)c1` (centres unmarked) [CBK305735], the viability at 28.5 h, 10 µM was 81.5%.
Next, `CC(c1ccccc1)C(CC(=O)O)C(=O)NCc1ccccc1` (centres unmarked) [CBK286830]: 101%; `COc1ccc(CCN2C(=O)N[C@@H](CCC(=O)NC3CC3)C2=O)cc1` [CBK288001]: 109%; `CC(Sc1nc(N(C)C)nc(N2CCOCC2)n1)C(=O)Nc1ccc(Cl)c(Cl)c1` (centres unmarked) [CBK269229]: 110%.
Next, `O=C(c1ccccc1)c1cc(Cl)ccc1-n1ccnc1Br` [CBK016011]: 90.4%.
As for `COc1ccc(C2(C(F)(F)F)NC(=O)N3CCN=C3S2)cc1` (centres unmarked) [CBK019170], the viability at 28.5 h, 10 µM came out at 106%.
Take `O=C(c1ccc(F)cc1)C1CCN(Cc2cccnc2)CC1` [CBK149118]: the viability at 28.5 h, 10 µM came out at 101%.
Next, `CCOc1ccccc1NC(=O)Nc1cccc(S(N)(=O)=O)c1` [CBK057282]: 91.3%; `Nc1ncc(-c2cccc(O)c2)nc1-c1ccc(C(=O)NCCO)cc1` [CBK064143]: 114%; `COc1ccc(/C(N)=N/OC(=O)Cc2ccc(Cl)cc2)cc1OC` [CBK263272]: 93.2%.
Next, `CC(=O)c1ccc(C(=O)N2CCC3(CC2)CC(=O)c2ccc4ccccc4c2O3)cc1` [CBK156458]: 104%.
Next, `C=CCn1c(-c2sc(NC(=O)c3ccc(CNC(=O)NC(C)C)cc3)nc2C)n[nH]c1=S` [CBK297764]: 111%; `C/C(=N\NC(=O)CCC(=O)Nc1ccccc1C)c1ccc(O)cc1O` [CBK261946]: 94.2%; `CN(C)CC(C)(C)CNC1CCN(C)CC1` [CBK261926]: 95.2%.
For `N#CCC(=O)Nc1ccc(C(=O)N2CCN(c3ccccc3)CC2)cc1` [CBK306060], the viability at 28.5 h, 10 µM came out at 91.9%.
On to `CC(=O)NCCSc1nc2ccccc2nc1C(F)(F)F` [CBK105303], for which the viability at 28.5 h, 10 µM was 89.6%.

By viability is commonly meant a read-out of living cells in per cent, often relative to untreated cells.
